In publication PMC7561186, “Rational design of balanced dual-targeting antibiotics with limited resistance” (PLoS Biology, 2020):
≈ marks a conversion by molar mass, not a printed value. Read-outs that look alike come from different tables or passages of the source.

System: S. aureus clinical isolates
Assay: microbe, parasite or virus in culture
Assay type: cell-based
Settings: Staphylococcus aureus, read-out: MIC

How did the MIC (MRSA, S. aureus IHMA 1621638, MRSA / VSSA) turn out when `C[C@H]1COc2c(N3CCN(C)CC3)c(F)cc3c(=O)c(C(=O)O)cn1c23` [Levofloxacin] was run?
The MIC was 0.25 µg/mL (≈ 0.692 µM).

And the MIC (MRSA, S. aureus IHMA 1622252, MRSA / VSSA)?
Its MIC is 16 µg/mL (≈ 44.3 µM).

What about the MIC (MRSA, S. aureus IHMA 1622527, MRSA / VSSA) of the same compound?
Its MIC is 0.25 µg/mL (≈ 0.692 µM).

What about the MIC (MRSA, S. aureus IHMA 1666371, MRSA / VSSA) of the same compound?
The MIC was over 64 µg/mL.

And the MIC (MRSA, S. aureus IHMA 1695391, MRSA / VSSA)?
The MIC was over 64 µg/mL.

What about the MIC (MRSA, S. aureus IHMA 1703428, MRSA / VSSA) of the same compound?
Its MIC is 0.25 µg/mL (≈ 0.692 µM).

And the MIC (MRSA, S. aureus IHMA 1720350, MRSA / VSSA)?
The MIC was 0.25 µg/mL (≈ 0.692 µM).

And the MIC (MRSA, S. aureus IHMA 1732989, MRSA / VSSA)?
The MIC was 64 µg/mL (≈ 177 µM).

What about the MIC (MRSA, S. aureus IHMA 1742231, MRSA / VSSA) of the same compound?
Its MIC is over 64 µg/mL.

What about the MIC (MRSA, S. aureus IHMA 1766357, MRSA / VSSA) of the same compound?
Its MIC is 16 µg/mL (≈ 44.3 µM).

What about the MIC (MSSA / NRS 12 / VISA, S. aureus IHMA 1308244, NRS12, MSSA / VISA) of the same compound?
The MIC was 0.5 µg/mL (≈ 1.38 µM).

What about the MIC (MSSA / NRS 13 / VISA, S. aureus IHMA 1308245, NRS13, MSSA / VISA) of the same compound?
Its MIC is 0.5 µg/mL (≈ 1.38 µM).

And the MIC (MSSA / NRS 14 / VISA, S. aureus IHMA 1308246, NRS14, MSSA / VISA)?
The MIC was 0.5 µg/mL (≈ 1.38 µM).

And the MIC (MSSA / NRS 17 / VISA, S. aureus IHMA 1308247, NRS17, MSSA / VISA)?
Its MIC is 16 µg/mL (≈ 44.3 µM).

What about the MIC (MSSA / NRS 28 / VISA, S. aureus IHMA 1308249, NRS28, MSSA / VISA) of the same compound?
Its MIC is 32 µg/mL (≈ 88.6 µM).

What about the MIC (MSSA / NRS 52, S. aureus IHMA 1308252, NRS52, MSSA / VSSA* (*Expected VAN intermediate, confirmed VAN susceptible twice), test date 2018-11-07) of the same compound?
The MIC was 0.25 µg/mL (≈ 0.692 µM).

And the MIC (MSSA / USA100 / VRSA, S. aureus IHMA 672236, VRS6, MSSA / VRSA, USA100)?
The MIC was 32 µg/mL (≈ 88.6 µM).

What about the MIC (MSSA, S. aureus IHMA 1563826, MSSA / VSSA) of the same compound?
The MIC was 0.25 µg/mL (≈ 0.692 µM).

What about the MIC (MSSA, S. aureus IHMA 1565492, MSSA / VSSA) of the same compound?
The MIC was 0.25 µg/mL (≈ 0.692 µM).

What about the MIC (MSSA, S. aureus IHMA 1569499, MSSA / VSSA) of the same compound?
Its MIC is 0.25 µg/mL (≈ 0.692 µM).

What about the MIC (MSSA, S. aureus IHMA 1569754, MSSA / VSSA) of the same compound?
The MIC was 16 µg/mL (≈ 44.3 µM).

What about the MIC (MSSA, S. aureus IHMA 1574202, MSSA / VSSA) of the same compound?
The MIC was 0.25 µg/mL (≈ 0.692 µM).

What about the MIC (MSSA, S. aureus IHMA 1575652, MSSA / VSSA) of the same compound?
Its MIC is 0.25 µg/mL (≈ 0.692 µM).

And the MIC (MSSA, S. aureus IHMA 1575779, MSSA / VSSA)?
Its MIC is 0.25 µg/mL (≈ 0.692 µM).

What about the MIC (MSSA, S. aureus IHMA 1576329, MSSA / VSSA) of the same compound?
The MIC was 0.25 µg/mL (≈ 0.692 µM).

What about the MIC (MSSA, S. aureus IHMA 1577800, MSSA / VSSA) of the same compound?
The MIC was 0.25 µg/mL (≈ 0.692 µM).

What about the MIC (MSSA, S. aureus IHMA 1578560, MSSA / VSSA) of the same compound?
The MIC was 0.25 µg/mL (≈ 0.692 µM).

And the MIC (MSSA, S. aureus IHMA 1580233, MSSA / VSSA)?
Its MIC is 0.25 µg/mL (≈ 0.692 µM).

What about the MIC (MSSA, S. aureus IHMA 1580925, MSSA / VSSA) of the same compound?
The MIC was 0.25 µg/mL (≈ 0.692 µM).

And the MIC (MSSA, S. aureus IHMA 1580955, MSSA / VSSA)?
The MIC was 0.25 µg/mL (≈ 0.692 µM).

What about the MIC (MSSA, S. aureus IHMA 1582586, MSSA / VSSA) of the same compound?
Its MIC is 0.5 µg/mL (≈ 1.38 µM).

What about the MIC (MSSA, S. aureus IHMA 1582691, MSSA / VSSA) of the same compound?
The MIC was 0.25 µg/mL (≈ 0.692 µM).

What about the MIC (MSSA, S. aureus IHMA 1584230, MSSA / VSSA) of the same compound?
Its MIC is 0.25 µg/mL (≈ 0.692 µM).

And the MIC (MSSA, S. aureus IHMA 1587279, MSSA / VSSA)?
The MIC was 0.25 µg/mL (≈ 0.692 µM).

What about the MIC (MSSA, S. aureus IHMA 1591459, MSSA / VSSA) of the same compound?
Its MIC is 16 µg/mL (≈ 44.3 µM).

What about the MIC (MSSA, S. aureus IHMA 1592749, MSSA / VSSA) of the same compound?
Its MIC is 0.25 µg/mL (≈ 0.692 µM).

And the MIC (MSSA, S. aureus IHMA 1592751, MSSA / VSSA)?
The MIC was 0.25 µg/mL (≈ 0.692 µM).

And the MIC (MSSA, S. aureus IHMA 1594297, MSSA / VSSA)?
Its MIC is 0.25 µg/mL (≈ 0.692 µM).

What about the MIC (MSSA, S. aureus IHMA 1597120, MSSA / VSSA) of the same compound?
Its MIC is 0.25 µg/mL (≈ 0.692 µM).

And the MIC (MSSA, S. aureus IHMA 1597125, MSSA / VSSA)?
The MIC was 0.25 µg/mL (≈ 0.692 µM).

What about the MIC (MSSA, S. aureus IHMA 1599157, MSSA / VSSA) of the same compound?
Its MIC is 0.25 µg/mL (≈ 0.692 µM).

And the MIC (MSSA, S. aureus IHMA 1599506, MSSA / VSSA)?
Its MIC is 0.25 µg/mL (≈ 0.692 µM).

What about the MIC (MSSA, S. aureus IHMA 1602078, MSSA / VSSA) of the same compound?
The MIC was 32 µg/mL (≈ 88.6 µM).

And the MIC (MSSA, S. aureus IHMA 1604586, MSSA / VSSA)?
The MIC was 0.25 µg/mL (≈ 0.692 µM).

And the MIC (MSSA, S. aureus IHMA 1604609, MSSA / VSSA)?
Its MIC is 0.25 µg/mL (≈ 0.692 µM).

What about the MIC (MSSA, S. aureus IHMA 1609919, MSSA / VSSA) of the same compound?
Its MIC is 0.25 µg/mL (≈ 0.692 µM).

What about the MIC (MSSA, S. aureus IHMA 1622864, MSSA / VSSA) of the same compound?
The MIC was 0.25 µg/mL (≈ 0.692 µM).

What about the MIC (MSSA, S. aureus IHMA 1626392, MSSA / VSSA) of the same compound?
The MIC was 0.25 µg/mL (≈ 0.692 µM).

And the MIC (MSSA, S. aureus IHMA 1713793, MSSA / VSSA)?
Its MIC is 0.25 µg/mL (≈ 0.692 µM).
